The text below walks through data of ChEMBL document CHEMBL1909046, “DrugMatrix in vitro pharmacology data”.

Broadly, the IC50 is the concentration that inhibits the measured activity by half.

Data set [1] can be described thus: DRUGMATRIX: Phorbol Ester radioligand binding (ligand: [3H] PDBu). Conditions: Not Active = under 50% inhibition at 10 µM. The data set is classed as cell membranes, Mus musculus, ICR, Brain, Membrane.
Data set [2] has as its target T1, Cholecystokinin receptor type A (Homo sapiens, UniProt P32238). Also: in other assays of this panel Not Active means under 50% inhibition at 10 µM.
T1 sequence (P32238 whole entry): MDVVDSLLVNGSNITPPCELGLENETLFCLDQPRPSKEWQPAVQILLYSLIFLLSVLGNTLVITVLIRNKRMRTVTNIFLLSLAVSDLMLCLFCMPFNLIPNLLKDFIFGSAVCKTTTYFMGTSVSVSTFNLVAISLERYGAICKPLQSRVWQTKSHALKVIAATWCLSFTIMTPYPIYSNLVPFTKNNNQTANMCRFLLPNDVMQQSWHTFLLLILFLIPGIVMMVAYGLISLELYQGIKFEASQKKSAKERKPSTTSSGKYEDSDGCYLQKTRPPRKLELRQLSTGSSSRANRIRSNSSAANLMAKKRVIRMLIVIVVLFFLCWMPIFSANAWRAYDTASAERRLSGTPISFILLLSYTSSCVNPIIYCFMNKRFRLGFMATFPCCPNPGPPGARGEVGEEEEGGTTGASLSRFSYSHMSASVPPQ
In kind it is cell membranes, Membrane. Conditions: 1321-n1.

Data set [3] has as its target T2, Cytochrome P450 2A6 (Homo sapiens, UniProt P11509). Also: in other assays of this panel Not Active means under 50% inhibition at 10 µM.
T2 sequence (P11509 whole entry): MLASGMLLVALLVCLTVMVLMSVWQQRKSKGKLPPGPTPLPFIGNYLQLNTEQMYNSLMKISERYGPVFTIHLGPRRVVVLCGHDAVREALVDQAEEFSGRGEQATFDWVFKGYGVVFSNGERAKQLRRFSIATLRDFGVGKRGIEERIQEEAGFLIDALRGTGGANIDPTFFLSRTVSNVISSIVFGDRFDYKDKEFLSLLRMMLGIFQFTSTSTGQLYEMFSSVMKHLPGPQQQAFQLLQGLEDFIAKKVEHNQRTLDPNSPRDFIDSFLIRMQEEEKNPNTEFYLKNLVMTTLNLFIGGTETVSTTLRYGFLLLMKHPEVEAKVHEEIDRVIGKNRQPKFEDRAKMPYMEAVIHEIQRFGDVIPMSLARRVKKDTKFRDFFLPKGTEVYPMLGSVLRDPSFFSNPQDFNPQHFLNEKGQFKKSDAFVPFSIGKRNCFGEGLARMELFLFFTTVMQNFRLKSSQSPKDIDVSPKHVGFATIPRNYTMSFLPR
Conditions: bti-tn-5b1-4.

Data set [4] has as its target D(3) dopamine receptor (Homo sapiens, UniProt P35462). Put plainly: DRUGMATRIX: Dopamine D3 radioligand binding (ligand: [3H] Spiperone). In kind it is cell membranes, CHO, Membrane. Conditions: cho.
The nature of data set [5]: DRUGMATRIX: Phosphodiesterase PDE4 enzyme inhibition (substrate: [3H]cAMP + cAMP). Conditions: u-937; Not Active = under 50% inhibition at 10 µM.
For data set [6], the target named is Cannabinoid receptor 1 (Homo sapiens, UniProt P21554). In kind it is cell membranes, Chem-1, Membrane. The following applies: chem-1. Also: in other assays of this panel Not Active means under 50% inhibition at 10 µM.
Chain of Cannabinoid receptor 1 (P21554 whole entry): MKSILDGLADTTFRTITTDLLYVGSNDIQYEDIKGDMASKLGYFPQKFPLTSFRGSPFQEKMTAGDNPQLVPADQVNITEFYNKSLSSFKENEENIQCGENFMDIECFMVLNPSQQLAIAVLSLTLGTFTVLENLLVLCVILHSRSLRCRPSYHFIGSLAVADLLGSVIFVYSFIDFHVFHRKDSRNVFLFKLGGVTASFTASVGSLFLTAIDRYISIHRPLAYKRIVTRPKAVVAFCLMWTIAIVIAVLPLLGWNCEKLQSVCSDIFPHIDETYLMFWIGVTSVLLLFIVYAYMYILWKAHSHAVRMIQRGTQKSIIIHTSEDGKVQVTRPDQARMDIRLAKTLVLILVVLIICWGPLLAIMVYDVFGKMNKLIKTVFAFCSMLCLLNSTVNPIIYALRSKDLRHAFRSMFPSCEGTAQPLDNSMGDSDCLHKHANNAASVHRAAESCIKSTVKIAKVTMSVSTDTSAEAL
Data set [7] deals with T3, Caspase-1 (Homo sapiens, UniProt P29466).
T3 sequence (P29466 whole entry): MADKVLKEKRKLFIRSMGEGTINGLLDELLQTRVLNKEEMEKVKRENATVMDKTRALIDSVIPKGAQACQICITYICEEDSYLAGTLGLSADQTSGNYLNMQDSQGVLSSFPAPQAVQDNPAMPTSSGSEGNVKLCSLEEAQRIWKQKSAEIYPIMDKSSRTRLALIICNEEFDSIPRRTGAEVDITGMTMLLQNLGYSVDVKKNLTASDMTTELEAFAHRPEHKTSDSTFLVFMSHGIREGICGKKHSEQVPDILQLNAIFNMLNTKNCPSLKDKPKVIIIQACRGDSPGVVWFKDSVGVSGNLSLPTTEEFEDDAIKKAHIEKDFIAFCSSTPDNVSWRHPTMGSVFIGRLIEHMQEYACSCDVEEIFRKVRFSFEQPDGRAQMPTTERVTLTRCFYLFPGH
Also noted: species or system Escherichia coli.

Chain of D(3) dopamine receptor (P35462 whole entry): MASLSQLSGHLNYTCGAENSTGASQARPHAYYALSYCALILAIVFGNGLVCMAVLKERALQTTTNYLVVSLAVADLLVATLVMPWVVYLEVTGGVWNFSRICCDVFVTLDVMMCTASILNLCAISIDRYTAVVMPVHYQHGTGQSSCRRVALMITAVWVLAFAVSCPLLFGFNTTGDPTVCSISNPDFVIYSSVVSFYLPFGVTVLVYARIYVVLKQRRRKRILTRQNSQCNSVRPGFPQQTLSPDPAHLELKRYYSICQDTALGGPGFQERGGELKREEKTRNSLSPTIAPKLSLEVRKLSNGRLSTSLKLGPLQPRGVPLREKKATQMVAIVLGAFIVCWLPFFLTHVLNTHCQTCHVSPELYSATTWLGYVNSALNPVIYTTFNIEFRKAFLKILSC

Consider `O=c1ccc2ccccc2o1` [COUMARIN], for which the IC50 entry in data set [1], in data set [2], in data set [3], in data set [4], in data set [5] and in data set [6] was “Not Active” throughout. Besides, the IC50 result in data set [7] is “Not Active”. Also, the Ki result in data set [1], in data set [3] and in data set [5] was “Not Active” in each case.

Take `CN(C)/N=N/c1[nH]cnc1C(N)=O` [DACARBAZINE]: the 50% inhibitory concentration (IC50) result in data set [1], in data set [2], in data set [3], in data set [4], in data set [5] and in data set [6] was “Not Active” each time. For the same molecule, the IC50 result in data set [7] is listed as “Not Active”. The Ki entry in data set [1], in data set [3] and in data set [5] was “Not Active” throughout.

Consider `COc1ccc2c(c1)[C@]13CCCC[C@@H]1[C@H](C2)N(C)CC3` [DEXTROMETHORPHAN], for which the IC50 result in data set [1], in data set [2], in data set [3], in data set [4], in data set [5] and in data set [6] was “Not Active” in each case. Besides, the 50% inhibitory concentration (IC50) entry in data set [7] is “Not Active”. In addition, the Ki result in data set [1], in data set [3] and in data set [5] was “Not Active” throughout.

With `CC(=O)Nc1c(I)c(NC(C)=O)c(I)c(C(=O)O)c1I` [DIATRIZOIC ACID], the IC50 result in data set [1], in data set [2], in data set [3], in data set [4], in data set [5] and in data set [6] was “Not Active” in each case. For the same molecule, the half-maximal inhibitory concentration (IC50) result in data set [7] is on record as “Not Active”. For the same molecule, the Ki entry in data set [1], in data set [3] and in data set [5] was “Not Active” throughout.

For `COP(=O)(OC)OC=C(Cl)Cl` [DICHLORVOS], the IC50 result in data set [1], in data set [2], in data set [3], in data set [4], in data set [5] and in data set [6] was “Not Active” in each case. Moreover, the IC50 entry in data set [7] is given as “Not Active”. Further, the Ki result in data set [1], in data set [3] and in data set [5] was “Not Active” in each case.

In the case of `O=C(O)Cc1ccccc1Nc1c(Cl)cccc1Cl` [DICLOFENAC], the IC50 result in data set [1], in data set [2], in data set [3], in data set [4], in data set [5] and in data set [6] was “Not Active” in each case. For the same molecule, in data set [7], the IC50 entry is given as “Not Active”. Besides, the Ki result in data set [1], in data set [3] and in data set [5] was “Not Active” throughout.

As to `C[C@H]1O[C@@H](O[C@H]2[C@@H](O)C[C@H](O[C@H]3[C@@H](O)C[C@H](O[C@H]4CC[C@@]5(C)[C@H](CC[C@@H]6[C@@H]5CC[C@]5(C)[C@@H](C7=CC(=O)OC7)CC[C@]65O)C4)O[C@@H]3C)O[C@@H]2C)C[C@H](O)[C@@H]1O` [DIGITOXIN], the IC50 entry in data set [1], in data set [2], in data set [3], in data set [4], in data set [5] and in data set [6] was “Not Active” throughout. The IC50 entry in data set [7] is recorded as “Not Active”. Also, the Ki result in data set [1], in data set [3] and in data set [5] was “Not Active” in each case.

On to `CCN1CC(CCN2CCOCC2)C(c2ccccc2)(c2ccccc2)C1=O` (stereo not given) [DOXAPRAM], for which the IC50 result in data set [1], in data set [2], in data set [3], in data set [4], in data set [5] and in data set [6] was “Not Active” each time. Further, the IC50 entry in data set [7] is given as “Not Active”. Besides, the Ki entry in data set [1], in data set [3] and in data set [5] was “Not Active” each time.

On to `Cn1c(=O)c2c(ncn2CC2OCCO2)n(C)c1=O` [DOXOFYLLINE], for which the IC50 result in data set [1], in data set [2], in data set [3], in data set [4], in data set [5] and in data set [6] was “Not Active” throughout. Moreover, in data set [7], the IC50 result is “Not Active”. For the same molecule, the Ki entry in data set [1], in data set [3] and in data set [5] was “Not Active” throughout.

As for `COc1cccc2c1C(=O)c1c(O)c3c(c(O)c1C2=O)C[C@@](O)(C(=O)CO)C[C@@H]3O[C@H]1C[C@H](N)[C@H](O)[C@H](C)O1` [DOXORUBICIN], the IC50 entry in data set [1], in data set [2], in data set [3], in data set [4], in data set [5] and in data set [6] was “Not Active” throughout. Also, the half-inhibitory concentration (IC50) in data set [7] (read-out: IC50) amounted to 12.2 µM. In addition, the Ki result in data set [1], in data set [3] and in data set [5] was “Not Active” in each case.

For `COc1cccc2c1C(=O)c1c(O)c3c(c(O)c1C2=O)C[C@@](O)(C(=O)CO)C[C@@H]3O[C@H]1C[C@H](N)[C@@H](O)[C@H](C)O1` [EPIRUBICIN], the IC50 result in data set [1], in data set [2], in data set [3], in data set [4], in data set [5] and in data set [6] was “Not Active” each time. The IC50 result in data set [7] is recorded as “Not Active”. The Ki result in data set [1], in data set [3] and in data set [5] was “Not Active” each time.

For `C[C@]12CC[C@@H]3c4ccc(OC(=O)c5ccccc5)cc4CC[C@H]3[C@@H]1CC[C@@H]2O` [ESTRADIOL BENZOATE], the IC50 result in data set [1], in data set [2], in data set [3], in data set [4], in data set [5] and in data set [6] was “Not Active” throughout. The IC50 entry in data set [7] is listed as “Not Active”. In addition, the Ki entry in data set [1], in data set [3] and in data set [5] was “Not Active” throughout.

As for `C[C@]12CC[C@@H]3c4ccc(O)cc4CC[C@H]3[C@@H]1CC[C@@H]2O` [ESTRADIOL], the IC50 result in data set [1], in data set [2], in data set [3], in data set [4], in data set [5] and in data set [6] was “Not Active” in each case. Also, the IC50 entry in data set [7] is given as “Not Active”. Besides, the Ki entry in data set [1], in data set [3] and in data set [5] was “Not Active” throughout.

Consider `CC[C@@H](CO)NCCN[C@@H](CC)CO` [ETHAMBUTOL], for which the IC50 entry in data set [1], in data set [2], in data set [3], in data set [4], in data set [5] and in data set [6] was “Not Active” each time. For the same molecule, the IC50 result in data set [7] was “Not Active”. Further, the Ki entry in data set [1], in data set [3] and in data set [5] was “Not Active” each time.

In the case of `CC1(C)O[C@@H]2C[C@H]3[C@@H]4C[C@H](F)C5=CC(=O)C=C[C@]5(C)[C@H]4[C@@H](O)C[C@]3(C)[C@]2(C(=O)CO)O1` [FLUNISOLIDE], the IC50 entry in data set [1], in data set [2], in data set [3], in data set [4], in data set [5] and in data set [6] was “Not Active” in each case. For the same molecule, the IC50 result in data set [7] is recorded as “Not Active”. For the same molecule, the Ki result in data set [1], in data set [3] and in data set [5] was “Not Active” in each case.
